Five compounds from patent publication US6399614B1, “1-(N-phenylaminoalkyl)piperazine derivatives substituted at position 2 of the phenyl ring” (Recordati S.A. Chemical and Pharmaceutical Company, priority 1997, dated 2002) can be followed below.

Assay [1] concerns the target T1, post-synaptic 5-HT1A receptor (Rattus norvegicus, UniProt P19327).
T1 construct: from tissue; host or cells: whole animal, male Sprague-Dawley rats
T1 sequence (P19327 1-422): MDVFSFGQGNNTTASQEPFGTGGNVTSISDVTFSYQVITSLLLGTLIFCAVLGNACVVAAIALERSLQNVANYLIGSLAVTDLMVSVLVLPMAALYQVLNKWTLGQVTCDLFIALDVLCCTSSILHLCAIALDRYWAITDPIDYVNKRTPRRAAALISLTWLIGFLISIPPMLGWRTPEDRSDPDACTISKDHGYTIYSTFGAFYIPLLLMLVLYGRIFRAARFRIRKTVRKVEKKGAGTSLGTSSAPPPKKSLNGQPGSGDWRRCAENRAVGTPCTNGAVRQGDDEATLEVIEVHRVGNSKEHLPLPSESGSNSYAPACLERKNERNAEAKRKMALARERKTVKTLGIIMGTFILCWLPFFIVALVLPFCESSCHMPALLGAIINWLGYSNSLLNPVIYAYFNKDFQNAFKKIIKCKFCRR
Briefly: Inhibition of forepaw treading induced by 8-OH-DPAT in rats (post-synaptic antagonism). It counts as in vivo. As to conditions: for ED50: rat, iv, read-out: Post-synaptic 5-HT1A ID50, heading: Post-synaptic 5-HT1A ID50, dose blocking 50% of forepaw treading induced by 1 mg/kg s.c. 8-OH-DPAT in rats, compound i.v. As for the experimental part: The inhibitory effect of 5-HT1A receptor antagonists on the forepaw treading induced in rats by subcutaneous injection of 8-OH-DPAT was evaluated by the method of Tricklebank (Tricklebank et al., Eur. J.Pharmacol., 117:15, 1985) with minor modifications as described below. Male Sprague-Dawley rats (150-175 g) obtained from Charles River (Italy), were housed in a climate-controlled room and maintained on a 12 h light/dark cycle with free access to food and water. On the day of experiment, rats were placed singly in clear plastic boxes. Rats were treated with reserpine, 1 mg/kg s.c., 18-24 h before the test to deplete intracellular stores of noradrenaline. For evaluation of antagonistic activity, compounds were i.v. administered 16 min before 8-OH-DPAT (1 mg/kg s.c.). Observation sessions of 30 s duration began 3 min after treatment with the agonist and were repeated every 3 min over a period of 15 min. The appearance of the forepaw treading symptom induced by postsynaptic stimulation of the 5HT1A receptors was noted, and its intensity was scored using a ranked intensity scale in which: 0=absent, 1=equivocal, 2=present and 3=intense. Behavioral scores for each treated rat were accumulated over the time course (5 observation periods) and expressed as mean values of 8-10 rats. A linear regression equation was used in order to evaluate ID50 values, defined as the dose of antagonist needed to block 50% of the forepaw treading intensity induced by 1 mg/kg 8-OH-DPAT administered subcutaneously.

The target in assay [2] is T2, human 5-HT1A serotonergic receptor (Homo sapiens, UniProt P08908).
T2 construct: expressed in transfected cells; host or cells: HeLa
T2 sequence (P08908 1-422): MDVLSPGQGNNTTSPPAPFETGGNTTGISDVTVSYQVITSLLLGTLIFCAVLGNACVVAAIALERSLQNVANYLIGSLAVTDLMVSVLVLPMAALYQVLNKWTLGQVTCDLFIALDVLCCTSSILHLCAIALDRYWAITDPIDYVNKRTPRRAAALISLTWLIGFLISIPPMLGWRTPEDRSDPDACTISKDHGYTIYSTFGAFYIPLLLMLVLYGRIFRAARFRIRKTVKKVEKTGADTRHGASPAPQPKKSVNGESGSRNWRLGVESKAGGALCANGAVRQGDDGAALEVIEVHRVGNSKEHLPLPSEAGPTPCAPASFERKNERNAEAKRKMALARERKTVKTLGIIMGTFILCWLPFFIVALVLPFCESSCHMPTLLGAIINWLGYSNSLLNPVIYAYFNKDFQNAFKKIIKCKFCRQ
Briefly: Radioreceptor binding, recombinant human 5-HT1A receptors ([3H]8-OH-DPAT, HeLa membranes). To be noted: for Ki: recombinant human receptor, [3H]8-OH-DPAT, Ki from IC50 by Cheng & Prusoff, read-out: Binding affinity for the 5-HT1A receptor, Ki. In short, it runs like this:
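Membranes from HeLa cells stably transfected with human 5-HT1A clone G-21 incubated 30 min at 30° C with 0.2-1 nM [3H]8-OH-DPAT in 50 mM Tris HCl pH 7.4, 2.5 mM MgCl2, 10 μM pargiline; nonspecific binding with 10 μM 5-HT. Filtration assay; IC50 from curve fitting converted to Ki by Cheng-Prusoff.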

In the case of `COc1ccccc1N1CCN(CCN(C(=O)C2CCCCC2)c2ccccc2OC)CC1` [Example 23, 1-[N-(2-methoxyphenyl)-N-cyclohexylcarbonyl-2-aminoethyl]-4-(2-methoxyphenyl)piperazine], in assay [1], the ED50 was 0.177 mg/kg. Besides, in assay [2], the Ki (commonly a measure of affinity in units of concentration, obtained from inhibition or displacement) is 0.14 nM.
Take `COC(=O)c1ccccc1N(CCN1CCN(c2ccccc2OC)CC1)C(=O)C1CCCCC1` [Example 18, 1-[N-(2-methoxycarbonylphenyl)-N-cyclohexylcarbonyl-2-aminoethyl]-4-(2-methoxyphenyl)piperazine]: the ED50 in assay [1] is 0.084 mg/kg. Moreover, the Ki in assay [2] is 0.6 nM.
For `COc1ccccc1N1CCN(CCN(C(=O)C2CCCCC2)c2ccccc2)CC1` [Compound A, 1-(N-phenyl-N-cyclohexylcarbonyl-2-aminoethyl)-4-(2-methoxyphenyl)piperazine, reference compound], in assay [1] (forepaw treading model in rats), the “fold less active than compound of Example 2, post-synaptic model” value is listed as “at least 10 fold”. For the same compound, in assay [1], the ED50 was determined as 0.35 mg/kg. The “affinity for 5-HT1A receptors (in words)” value in assay [2] is “very high affinity”.
With `COc1ccccc1N1CCN(CCN(C(=O)C2CCCCC2)c2ccccc2[N+](=O)[O-])CC1` [Example 2, 1-[N-(2-nitrophenyl)-N-cyclohexylcarbonyl-2-aminoethyl]-4-(2-methoxyphenyl) piperazine], in assay [1], the ED50 was 0.036 mg/kg. In addition, the “affinity for 5-HT1A receptors (in words)” value in assay [2] is “very high affinity”.
Regarding `O=C(C1CCCCC1)N(CCN1CCN(c2cccc3[nH]ccc23)CC1)c1ccccc1[N+](=O)[O-]` [Example 13, 1-[N-(2-nitrophenyl)-N-cyclohexylcarbonyl-2-aminoethyl]-4-(4-indolyl)piperazine], the ED50 in assay [1] worked out at 0.082 mg/kg. For the same compound, the Ki in assay [2] stood at 0.5 nM.
